According to US8975241B2, “Composition for treating and preventing obesity including high water-soluble 2-hydroxypropyl-betacyclodextrin as effective component” (Song Ho Biomed Co., Ltd., priority 2009, dated 2015):

Assays:
[1] = test system: mouse model with obesity caused by a high fat diet; assay: Change in body weight by autonomically drinking in mouse model with obesity caused by high fat diet; format: in vivo; conditions: for degree of body weight decrease as compared with HPBCD: autonomically drinking
Description: Male C57BL/6J mice (Five age of the week, KRIBB, Korea) were accommodated for 1 week, and then were induced with obesity by giving a high fat diet (60% fat kcal, Research Diets) for 15 days. The weights of the animals that were induced with obesity were equally divided into 3 animals as one group. And then, the solvent-control group drank sterilized distilled water, autonomically. Hydroxypropyl-β-cyclodextrin (HPBCD) was dissolved in sterilized distilled water to be 10, 15, and 20% (W/V) concentrations for drinking autonomically. A change in body weight was daily measured to all of animals during the test; the fixed amount of feeds was provided at the day of measuring body weight, and then an amount of intake per a group (g/day) was calculated by measuring a residual amount of feeds at the next day. A change in body weight was measured during the test using α-cyclodextrin (α-CD) instead of 2-hydroxypropyl-β-cyclodextrin (HPBCD) in the same method as the above <Example 1>.

[2] = test system: high fat diet-mouse; assay: Change in body weight by oral administration in high fat diet-mouse; format: in vivo; conditions: for degree of body weight decrease as compared with HPBCD: method of Example 3 (oral)
Description: Male C57BL/6J mice (Five age of the week, KRIBB, Korea) were accommodated for 1 week. And then, the weights of the animals were equally divided into 5 animals as one group. While a high fat diet (60% fat kcal) was provided, sterilized distilled water and HPBCDs with 10, 20, and 40% (W/V) were orally administered at three times (Morning, Afternoon, Evening) a day for 5 days in 0.2 ml per 20 g body weight of a mouse at the same time. A change in body weight was measured to all of the animals during the test at one time per day; the fixed amount of feeds was provided at the day of measuring body weight, and then an average amount of intake per an animal (g/mouse/day) was calculated by measuring a residual amount of feeds at the next day.
A body weight was measured by using the same conditions as the above <Example 3>, except that BCDs with 10 and 20% (W/V) concentrations were used instead of HPBCDs with 10, 20, and 40% (W/V) concentrations.
A change in body weight was measured during the test using α-CD instead of HPBCD in the same method as the above <Example 3>.

[3] = test system: mouse model with obesity caused by a high fat diet; assay: Change in body weight by autonomically drinking in mouse model with obesity caused by high fat diet; format: in vivo
[4] = test system: high fat diet-mouse; assay: Change in body weight by oral administration in high fat diet-mouse; format: in vivo; conditions: Table 19, β-CD 15% (w/v) oral
[5] = test system: mouse; conditions: cited from earlier work
[6] = test system: human; conditions: cited from earlier work

OC[C@H]1O[C@@H]2O[C@H]3[C@H](O)[C@@H](O)[C@@H](O[C@H]4[C@H](O)[C@@H](O)[C@@H](O[C@H]5[C@H](O)[C@@H](O)[C@@H](O[C@H]6[C@H](O)[C@@H](O)[C@@H](O[C@H]7[C@H](O)[C@@H](O)[C@@H](O[C@H]8[C@H](O)[C@@H](O)[C@@H](O[C@H]1[C@H](O)[C@H]2O)O[C@@H]8CO)O[C@@H]7CO)O[C@@H]6CO)O[C@@H]5CO)O[C@@H]4CO)O[C@@H]3CO [BCD, β-cyclodextrin]
degree of body weight decrease as compared with HPBCD [1]: low | increase in body weight as compared with the distilled water oral-administering group ([2]; 10 and 20% (W/V) oral): suppressed | body weight as compared with the initial body weight ([2]; 10 and 20% (W/V) oral, Example 5): not decreased | Body weight as percent of initial body weight ([2]; Table 15, BCD 10% (w/v) oral, 0 Day): 100.0 ± 0.0% | Body weight as percent of initial body weight ([2]; Table 15, BCD 10% (w/v) oral, 1 Day): 101.5 ± 2.1% | Body weight as percent of initial body weight ([2]; Table 15, BCD 10% (w/v) oral, 2 Day): 100.7 ± 1.9 % | Body weight as percent of initial body weight ([2]; Table 15, BCD 10% (w/v) oral, 3 Day): 102.0 ± 2.5 % | Body weight as percent of initial body weight ([2]; Table 15, BCD 10% (w/v) oral, 4 Day): 102.4 ± 4.0 % | Body weight as percent of initial body weight ([2]; Table 15, BCD 10% (w/v) oral, 5 Day): 103.4 ± 4.1 % | Body weight as percent of initial body weight ([2]; Table 15, BCD 20% (w/v) oral, 0 Day): 100.0 ± 0.0% | Change in body weight (%) ([2]; Table 15, BCD 20% (w/v) oral, 1 Day): 100.3 ± 2.7 % | Body weight as percent of initial body weight ([2]; Table 15, BCD 20% (w/v) oral, 2 Day): 102.1 ± 2.1 % | Body weight as percent of initial body weight ([2]; Table 15, BCD 20% (w/v) oral, 3 Day): 103.1 ± 2.1 % | Body weight as percent of initial body weight ([2]; Table 15, BCD 20% (w/v) oral, 4 Day): 103.7 ± 3.0 % | Body weight as percent of initial body weight ([2]; Table 15, BCD 20% (w/v) oral, 5 Day): 103.2 ± 2.6 % | Body weight as percent of initial body weight ([2]; Table 19, β-CD 10% (w/v) oral, 0 Day): 100.0 ± 0.0% | Body weight as percent of initial body weight ([2]; Table 19, β-CD 10% (w/v) oral, 1 Day): 100.5 ± 0.8% | Body weight as percent of initial body weight ([2]; Table 19, β-CD 10% (w/v) oral, 2 Day): 100.1 ± 1.3% | Body weight as percent of initial body weight ([2]; Table 19, β-CD 10% (w/v) oral, 3 Day): 99.8 ± 1.2% | Body weight as percent of initial body weight ([2]; Table 19, β-CD 15% (w/v) oral, 2 Day): 99.0 ± 1.4% | Body weight as percent of initial body weight ([2]; Table 19, β-CD 15% (w/v) oral, 3 Day): 98.5 ± 1.0% | Body weight as percent of initial body weight ([2]; Table 19, β-CD 20% (w/v) oral, 0 Day): 100.0 ± 0.0% | Body weight as percent of initial body weight ([2]; Table 19, β-CD 20% (w/v) oral, 1 Day): 99.5 ± 1.1% | Body weight as percent of initial body weight ([2]; Table 19, β-CD 20% (w/v) oral, 2 Day): 98.6 ± 0.8% | Body weight as percent of initial body weight ([2]; Table 19, β-CD 20% (w/v) oral, 3 Day): 97.8 ± 1.3% | degree of body weight decrease as compared with HPBCD [2]: low | difference of effect between 10 and 20% (W/V) ([2]; oral): no significant difference | Change in body weight (%) ([3]; Table 18, β-CD 10% (w/v) autonomically drinking, 0 Day): 100.0 ± 0.0% | Change in body weight (%) ([3]; Table 18, β-CD 10% (w/v) autonomically drinking, 1 Day): 99.8 ± 0.8% | Change in body weight (%) ([3]; Table 18, β-CD 10% (w/v) autonomically drinking, 2 Day): 98.5 ± 1.3% | Change in body weight (%) ([3]; Table 18, β-CD 10% (w/v) autonomically drinking, 3 Day): 98.2 ± 1.2% | Change in body weight (%) ([3]; Table 18, β-CD 20% (w/v) autonomically drinking, 0 Day): 100.0 ± 0.0% | Change in body weight (%) ([3]; Table 18, β-CD 20% (w/v) autonomically drinking, 1 Day): 99.1 ± 1.2% | Change in body weight (%) ([3]; Table 18, β-CD 20% (w/v) autonomically drinking, 2 Day): 98.6 ± 1.2% | Change in body weight (%) ([3]; Table 18, β-CD 20% (w/v) autonomically drinking, 3 Day): 97.5 ± 1.0% | Change in body weight (%) ([3]; Table 18, β-CD 40% (w/v) autonomically drinking, 0 Day): 100.0 ± 0.0% | Change in body weight (%) ([3]; Table 18, β-CD 40% (w/v) autonomically drinking, 1 Day): 98.8 ± 1.1% | Change in body weight (%) ([3]; Table 18, β-CD 40% (w/v) autonomically drinking, 2 Day): 97.0 ± 0.8% | Change in body weight (%) ([3]; Table 18, β-CD 40% (w/v) autonomically drinking, 3 Day): 96.4 ± 1.3% | Body weight as percent of initial body weight ([4]; 0 Day): 100.0 ± 0.0% | Body weight as percent of initial body weight ([4]; 1 Day): 99.6 ± 1.2% | antiobesity effect [5]: suppress a weight increase | antiobesity effect [6]: reduce weight

OC[C@H]1O[C@@H]2O[C@H]3[C@H](O)[C@@H](O)[C@@H](O[C@H]4[C@H](O)[C@@H](O)[C@@H](O[C@H]5[C@H](O)[C@@H](O)[C@@H](O[C@H]6[C@H](O)[C@@H](O)[C@@H](O[C@H]7[C@H](O)[C@@H](O)[C@@H](O[C@H]1[C@H](O)[C@H]2O)O[C@@H]7CO)O[C@@H]6CO)O[C@@H]5CO)O[C@@H]4CO)O[C@@H]3CO [α-CD, α-cyclodextrin]
Change in body weight (%) ([1]; Table 16, α-CD 10% (w/v) autonomically drinking, 2 Day): 100.6 ± 0.4% | Change in body weight (%) ([1]; Table 16, α-CD 15% (w/v) autonomically drinking, 1 Day): 99.8 ± 0.4% | Change in body weight (%) ([1]; Table 16, α-CD 15% (w/v) autonomically drinking, 2 Day): 99.3 ± 0.8% | Change in body weight (%) ([1]; Table 16, α-CD 20% (w/v) autonomically drinking, 1 Day): 99.8 ± 0.8% | Change in body weight (%) ([1]; Table 16, α-CD 20% (w/v) autonomically drinking, 2 Day): 99.0 ± 1.4% | degree of body weight decrease as compared with HPBCD [1]: low | Body weight as percent of initial body weight ([2]; Table 17, α-CD 10% (w/v) oral, 0 Day): 100.0 ± 0.0% | Body weight as percent of initial body weight ([2]; Table 17, α-CD 10% (w/v) oral, 1 Day): 101.3 ± 0.4% | Body weight as percent of initial body weight ([2]; Table 17, α-CD 10% (w/v) oral, 2 Day): 100.5 ± 1.6% | Body weight as percent of initial body weight ([2]; Table 17, α-CD 10% (w/v) oral, 3 Day): 100.2 ± 2.7% | Body weight as percent of initial body weight ([2]; Table 17, α-CD 20% (w/v) oral, 0 Day): 100.0 ± 0.0% | Body weight as percent of initial body weight ([2]; Table 17, α-CD 20% (w/v) oral, 1 Day): 99.8 ± 0.8% | Body weight as percent of initial body weight ([2]; Table 17, α-CD 20% (w/v) oral, 2 Day): 99.5 ± 1.2% | Body weight as percent of initial body weight ([2]; Table 17, α-CD 20% (w/v) oral, 3 Day): 99.2 ± 1.0% | Body weight as percent of initial body weight ([2]; Table 17, α-CD 40% (w/v) oral, 0 Day): 100.0 ± 0.0% | Body weight as percent of initial body weight ([2]; Table 17, α-CD 40% (w/v) oral, 1 Day): 99.6 ± 1.0% | Body weight as percent of initial body weight ([2]; Table 17, α-CD 40% (w/v) oral, 2 Day): 99.0 ± 1.2% | Body weight as percent of initial body weight ([2]; Table 17, α-CD 40% (w/v) oral, 3 Day): 98.2 ± 1.3% | degree of body weight decrease as compared with HPBCD [2]: low | Change in body weight (%) ([3]; Table 16, α-CD 10% (w/v) autonomically drinking, 0 Day): 100.0 ± 0.0% | Change in body weight (%) ([3]; Table 16, α-CD 10% (w/v) autonomically drinking, 1 Day): 100.2 ± 0.2% | Change in body weight (%) ([3]; Table 16, α-CD 10% (w/v) autonomically drinking, 3 Day): 100.1 ± 1.4% | Change in body weight (%) ([3]; Table 16, α-CD 15% (w/v) autonomically drinking, 0 Day): 100.0 ± 0.0% | Change in body weight (%) ([3]; Table 16, α-CD 15% (w/v) autonomically drinking, 3 Day): 98.9 ± 1.1% | Change in body weight (%) ([3]; Table 16, α-CD 20% (w/v) autonomically drinking, 0 Day): 100.0 ± 0.0% | Change in body weight (%) ([3]; Table 16, α-CD 20% (w/v) autonomically drinking, 3 Day): 98.5 ± 1.3%
